Measured values from ChEMBL document CHEMBL4229348, “Structure-activity relationship studies of ultra-short peptides with potent activities against fluconazole-resistant Candida albicans” (Eur J Med Chem, 2018).
Converted amounts (≈) assume the structure as drawn. The source made the active and inactive calls. The calls are words filed in the database; no cut-off is given here. Peptide text beside a SMILES is read from it.

Legend:
[1] = Retention time of the compound at 0.4 mM by HPLC analysis; assay type: physicochemical; conditions: 400 µM
[2] = system: Candida albicans; experiment: Fungicidal activity against fluconazole-resistant Candida albicans ATCC 64550 at 4 times MIC incubated for overnight flowed by replating and measured after 24 hrs; assay type: functional, organism-based
[3] = system: NHDF; experiment: Cytotoxicity against NHDF assessed as reduction in cell viability up to 200 uM after 5 days by CellTiter-Glo assay; assay type: cell-based; conditions: human, 120 h
[4] = system: Saccharomyces cerevisiae; experiment: Induction of membrane permeabilization in Saccharomyces cerevisiae BY4743 assessed as propidium iodide uptake at 23 uM preincubated for 2.5 hrs followed by propidium iodide addition and measured after 20 mins by bright-field and fluorescence microscopic analysis (reference value: 98%); assay type: functional
[5] = system: Candida albicans; experiment: Antifungal activity against fluconazole-resistant Candida albicans NUH-K6004 after overnight incubation by CLSI broth microdilution method; assay type: functional
[6] = system: Candida albicans; experiment: Antifungal activity against fluconazole-resistant Candida albicans ATCC 64550 after overnight incubation by CLSI broth microdilution method; assay type: functional
[7] = system: Candida albicans; experiment: Antifungal activity against fluconazole-resistant Candida albicans ATCC 200955 after overnight incubation by CLSI broth microdilution method; assay type: functional
[8] = system: Candida albicans; experiment: Antifungal activity against fluconazole-resistant Candida albicans TTSH-CALB02 after overnight incubation by CLSI broth microdilution method; assay type: functional
[9] = system: Saccharomyces cerevisiae; experiment: Induction of membrane permeabilization in Saccharomyces cerevisiae BY4743 assessed as propidium iodide uptake at 46 uM preincubated for 2.5 hrs followed by propidium iodide addition and measured after 20 mins by bright-field and fluorescence microscopic analysis (reference value: 98%); assay type: functional
[10] = system: Saccharomyces cerevisiae; experiment: Growth inhibition of Saccharomyces cerevisiae BY4743 incubated for 16 to 24 hrs; assay type: functional
[11] = system: Candida albicans; experiment: Antifungal activity against fluconazole-resistant Candida albicans TTSH-CALB01 after overnight incubation by CLSI broth microdilution method; assay type: functional
[12] = system: Candida albicans; experiment: Antifungal activity against fluconazole-resistant Candida albicans ATCC MYA-573 after overnight incubation by CLSI broth microdilution method; assay type: functional
[13] = system: Candida albicans; experiment: Antifungal activity against fluconazole-resistant Candida albicans ATCC 64124 after overnight incubation by CLSI broth microdilution method; assay type: functional
[14] = system: Candida albicans; experiment: Antifungal activity against fluconazole-resistant Candida albicans ATCC 96901 after overnight incubation by CLSI broth microdilution method; assay type: functional
[15] = system: Candida albicans; experiment: Antifungal activity against fluconazole-susceptible Candida albicans; assay type: functional
[16] = system: Candida albicans; experiment: Potency index, ratio of omiganan MIC to compound MIC for antifungal activity against fluconazole-resistant Candida albicans ATCC 64550; assay type: functional

Compound: CCCC[C@H](NC(=O)[C@H](CCCCN)NC(=O)[C@H](CCCC)NC(=O)[C@H](CCCCN)NC(=O)[C@H](CCCC)NC(=O)[C@H](CCCCN)NC(=O)[C@@H](N)CCCC)C(=O)N[C@@H](CCCCN)C(N)=O (HELM PEPTIDE1{[Nle].K.[Nle].K.[Nle].K.[Nle].K.[am]}$$$$V2.0)
- Retention_time [1]: 14 min
- Activity [2]: Active
- Activity [3]: Non-Toxic
- Activity [4]: 75%
- MIC [5]: 1.56 µM (≈ 1.53 µg/mL)
- MIC [6]: 1.56 µM (≈ 1.53 µg/mL)
- MIC [7]: 1.56 µM (≈ 1.53 µg/mL)
- MIC [8]: 1.56 µM (≈ 1.53 µg/mL)
- Activity [9]: 100%
- GI50 [10]: 5.75 µM
- TGI ([10]; read-out: GI100): 5.75 µM
- MIC [11]: 1.56 µM (≈ 1.53 µg/mL)
- MIC [12]: 3.13 µM (≈ 3.07 µg/mL)
- MIC [13]: 3.13 µM (≈ 3.07 µg/mL)
- MIC [14]: 1.56 µM (≈ 1.53 µg/mL)

Compound: H-IKIKIKIK-NH2
- Retention_time [1]: 13.4 min
- MIC [15]: 1.56 µM
- MIC [6]: 3.13 µM
- Ratio [16]: 16
